This note sets out measurements from US10206394B2, “Herbicidal compounds” (Syngenta Participations AG, priority 2014, dated 2019).

What all share (test): Glasshouse assay for herbicidal activity (pre- and post-emergence), percentage phytotoxicity
Holding throughout (type): in vivo

For one assay, the system named is Avena fatua (AVEFA). The note with it: Avena fatua. Put shortly: (§1)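 Percent injury was estimated by eye on a scale where 0% means no damage and 100% complete damage. Ratings came 15 DAA post-emergence and 20 DAA pre-emergence, with plants held under 16 h light and 65% humidity at 24/18 °C or 20/16 °C day/night.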
For assay [1], the system named is Alopecurus myosuroides (ALOMY). The conditions noted are these: Alopecurus myosuroides. Put shortly: as §1
The test system of another assay is Lolium perenne (LOLPE). The note with it: Lolium perenne. Put shortly:
as §1

The test system of assay [2] is Echinochloa crus-galli (ECHCG). The conditions noted are these: Echinochloa crus-galli. Put shortly: as §1
The mark [3] stands for this setting: post-emergence, 360 h, Rate 250 g/ha, post-emergence, visual assessment 15 DAA, 100%=total damage, 0%=no damage, read-out: Post-emergence herbicidal activity (percentage phytotoxicity) AVEFA POST.
Where [4] appears, read: pre-emergence, 480 h, Rate 250 g/ha, pre-emergence, visual assessment 20 DAA, 100%=total damage, 0%=no damage, read-out: Pre-emergence herbicidal activity (percentage phytotoxicity) AVEFA PRE.
Where [5] appears, read: post-emergence, 360 h, Rate 250 g/ha, post-emergence, visual assessment 15 DAA, 100%=total damage, 0%=no damage, read-out: Post-emergence herbicidal activity (percentage phytotoxicity) ALOMY POST.
Where [6] appears, read: pre-emergence, 480 h, Rate 250 g/ha, pre-emergence, visual assessment 20 DAA, 100%=total damage, 0%=no damage, read-out: Pre-emergence herbicidal activity (percentage phytotoxicity) ALOMY PRE.
The mark [7] stands for this setting: post-emergence, 360 h, Rate 250 g/ha, post-emergence, visual assessment 15 DAA, 100%=total damage, 0%=no damage, read-out: Post-emergence herbicidal activity (percentage phytotoxicity) LOLPE POST.
[8] abbreviates: pre-emergence, 480 h, Rate 250 g/ha, pre-emergence, visual assessment 20 DAA, 100%=total damage, 0%=no damage, read-out: Pre-emergence herbicidal activity (percentage phytotoxicity) LOLPE PRE.
The mark [9] stands for this setting: post-emergence, 360 h, Rate 250 g/ha, post-emergence, visual assessment 15 DAA, 100%=total damage, 0%=no damage, read-out: Post-emergence herbicidal activity (percentage phytotoxicity) ECHCG POST.
Setting [10] is: pre-emergence, 480 h, Rate 250 g/ha, pre-emergence, visual assessment 20 DAA, 100%=total damage, 0%=no damage, read-out: Pre-emergence herbicidal activity (percentage phytotoxicity) ECHCG PRE.
The mark [11] stands for this setting: post-emergence, 360 h, Rate 250 g/ha, post-emergence, assessed visually 15 DAA, 100%=total damage, 0%=no damage, read-out: Post-emergence herbicidal activity (percentage phytotoxicity) AVEFA POST.
Where [12] appears, read: post-emergence, 360 h, Rate 250 g/ha, post-emergence, assessed visually 15 DAA, 100%=total damage, 0%=no damage, read-out: Post-emergence herbicidal activity (percentage phytotoxicity) ALOMY POST.
Where [13] appears, read: post-emergence, 360 h, Rate 250 g/ha, post-emergence, assessed visually 15 DAA, 100%=total damage, 0%=no damage, read-out: Post-emergence herbicidal activity (percentage phytotoxicity) LOLPE POST.
Setting [14] is: post-emergence, 360 h, Rate 250 g/ha, post-emergence, assessed visually 15 DAA, 100%=total damage, 0%=no damage, read-out: Post-emergence herbicidal activity (percentage phytotoxicity) ECHCG POST.
Where [15] appears, read: post-emergence, 360 h, 250 g/ha, post-emergence, 15 DAA, visual assessment (100%=total damage, 0%=no damage), read-out: Post-emergence herbicidal activity (percentage phytotoxicity) AVEFA POST.
[16] abbreviates: pre-emergence, 480 h, 250 g/ha, pre-emergence, 20 DAA, visual assessment (100%=total damage, 0%=no damage), read-out: Pre-emergence herbicidal activity (percentage phytotoxicity) AVEFA PRE.
Setting [17] is: post-emergence, 360 h, 250 g/ha, post-emergence, 15 DAA, visual assessment (100%=total damage, 0%=no damage), read-out: Post-emergence herbicidal activity (percentage phytotoxicity) ALOMY POST.
Setting [18] is: pre-emergence, 480 h, 250 g/ha, pre-emergence, 20 DAA, visual assessment (100%=total damage, 0%=no damage), read-out: Pre-emergence herbicidal activity (percentage phytotoxicity) ALOMY PRE.
[19] abbreviates: post-emergence, 360 h, 250 g/ha, post-emergence, 15 DAA, visual assessment (100%=total damage, 0%=no damage), read-out: Post-emergence herbicidal activity (percentage phytotoxicity) LOLPE POST.
[20] abbreviates: pre-emergence, 480 h, 250 g/ha, pre-emergence, 20 DAA, visual assessment (100%=total damage, 0%=no damage), read-out: Pre-emergence herbicidal activity (percentage phytotoxicity) LOLPE PRE.
[21] abbreviates: post-emergence, 360 h, 250 g/ha, post-emergence, 15 DAA, visual assessment (100%=total damage, 0%=no damage), read-out: Post-emergence herbicidal activity (percentage phytotoxicity) ECHCG POST.
[22] abbreviates: pre-emergence, 480 h, 250 g/ha, pre-emergence, 20 DAA, visual assessment (100%=total damage, 0%=no damage), read-out: Pre-emergence herbicidal activity (percentage phytotoxicity) ECHCG PRE.

SMILES strings stand for the structures. Where two headings read alike, the source gives them in different places.

Regarding `C=Cc1cc(-c2ccc(Cl)cn2)cc(C)c1C1C(=O)CC(CC(=O)NC(C)(C)C)C1=O` (stereo not shown) [Compound B376], the pest or weed control at 250 g/ha with Avena fatua (AVEFA) (setting [3]) worked out at 90%; in the assay with Avena fatua (AVEFA) (setting [4]), 80%; in assay [1] (setting [5]), 90%; in assay [1] (setting [6]), 30%; with Lolium perenne (LOLPE) (setting [7]) it was 100%; in the assay on Lolium perenne (LOLPE) (setting [8]), 60%. In addition, the results for the pest or weed control at 250 g/ha in assay [2] (setting [9]) and in assay [2] (setting [10]) were 100% and 60%, respectively.

As for `COCC#CC(C)(C)NC(=O)CC1CC(=O)C(c2c(C)cc(C)cc2C)C1=O` (stereo not shown) [Compound A104], the pest or weed control at 250 g/ha is 70% in the assay on Avena fatua (AVEFA) (setting [11]); 0% in the assay on Avena fatua (AVEFA) (pre-emergence, 480 h, Rate 250 g/ha, pre-emergence, assessed visually 20 DAA, 100%=total damage, 0%=no damage, read-out: Pre-emergence herbicidal activity (percentage phytotoxicity) AVEFA PRE); 90% in assay [1] (setting [12]); 90% in assay [1] (pre-emergence, 480 h, Rate 250 g/ha, pre-emergence, assessed visually 20 DAA, 100%=total damage, 0%=no damage, read-out: Pre-emergence herbicidal activity (percentage phytotoxicity) ALOMY PRE); 60% in the assay on Lolium perenne (LOLPE) (setting [13]); 80% with Lolium perenne (LOLPE) (pre-emergence, 480 h, Rate 250 g/ha, pre-emergence, assessed visually 20 DAA, 100%=total damage, 0%=no damage, read-out: Pre-emergence herbicidal activity (percentage phytotoxicity) LOLPE PRE). Besides, the pest or weed control at 250 g/ha in assay [2] (setting [14]) is 70%; in assay [2] (pre-emergence, 480 h, Rate 250 g/ha, pre-emergence, assessed visually 20 DAA, 100%=total damage, 0%=no damage, read-out: Pre-emergence herbicidal activity (percentage phytotoxicity) ECHCG PRE) it was 80%.

Consider `Cc1cc(-c2ncc(F)cc2F)cc(C)c1C1C(=O)CC(CC(=O)NCc2cc(F)cc(F)c2)C1=O` (stereo not shown) [Compound B71], for which the pest or weed control at 250 g/ha turned out to be 100% in the assay with Avena fatua (AVEFA) (setting [15]); 90% in the assay on Avena fatua (AVEFA) (setting [16]); 100% in assay [1] (setting [17]); 90% in assay [1] (setting [18]); 100% in the assay on Lolium perenne (LOLPE) (setting [19]); 90% in the assay on Lolium perenne (LOLPE) (setting [20]). The pest or weed control at 250 g/ha in assay [2] (setting [21]) and in assay [2] (setting [22]) was 100% throughout.

Regarding `Cc1cc(C)c(C2C(=O)CC(CC(=O)NC3(C#N)CC3)C2=O)c(C)c1` (stereo not shown) [Compound A82], the pest or weed control at 250 g/ha in the assay with Avena fatua (AVEFA) (setting [11]) amounted to 10%; in assay [1] (setting [12]), 10%; in the assay with Lolium perenne (LOLPE) (setting [13]) it was 30%; in assay [2] (setting [14]), 30%.

Regarding `C=CC(C)NC(=O)CC1CC(=O)C(c2c(C)cc(-c3ccc(Cl)cn3)cc2C)C1=O` (stereo not shown) [Compound B365], the pest or weed control at 250 g/ha with Avena fatua (AVEFA) (setting [3]) worked out at 90%; in the assay on Avena fatua (AVEFA) (setting [4]), 90%; in assay [1] (setting [5]), 90%; in assay [1] (setting [6]), 100%; in the assay with Lolium perenne (LOLPE) (setting [7]), 90%; with Lolium perenne (LOLPE) (setting [8]), 100%. Further, the pest or weed control at 250 g/ha in assay [2] (setting [9]) and in assay [2] (setting [10]) was 100% throughout.

With `Cc1cc(-c2ncc(F)cn2)cc(C)c1C1C(=O)CC(CC(=O)NCC(C)C)C1=O` (stereo not shown) [Compound B112], the pest or weed control at 250 g/ha (in the assay on Avena fatua (AVEFA) (setting [15]); in the assay on Avena fatua (AVEFA) (setting [16]); in assay [1] (setting [17]); in assay [1] (setting [18]); with Lolium perenne (LOLPE) (setting [19]); in the assay with Lolium perenne (LOLPE) (setting [20])) was 100% throughout. For the same molecule, the pest or weed control at 250 g/ha in assay [2] (setting [21]) and in assay [2] (setting [22]) was 100% each time.

Consider `Cc1cc(-c2ncc(F)cn2)cc(C)c1C1C(=O)CC(CC(=O)NC/C=C/Cl)C1=O` (stereo not shown) [Compound B302], for which the pest or weed control at 250 g/ha was determined as 100% in the assay on Avena fatua (AVEFA) (post-emergence, 360 h, POST-emergence, rate 250 g/ha, visual score 15 DAA (100%=total damage, 0%=no damage), read-out: Post-emergence herbicidal activity (percentage phytotoxicity) AVEFA POST); 100% in the assay on Avena fatua (AVEFA) (pre-emergence, 480 h, PRE-emergence, rate 250 g/ha, visual score 20 DAA (100%=total damage, 0%=no damage), read-out: Pre-emergence herbicidal activity (percentage phytotoxicity) AVEFA PRE); 100% in assay [1] (post-emergence, 360 h, POST-emergence, rate 250 g/ha, visual score 15 DAA (100%=total damage, 0%=no damage), read-out: Post-emergence herbicidal activity (percentage phytotoxicity) ALOMY POST); 100% in assay [1] (pre-emergence, 480 h, PRE-emergence, rate 250 g/ha, visual score 20 DAA (100%=total damage, 0%=no damage), read-out: Pre-emergence herbicidal activity (percentage phytotoxicity) ALOMY PRE); 100% in the assay on Lolium perenne (LOLPE) (post-emergence, 360 h, POST-emergence, rate 250 g/ha, visual score 15 DAA (100%=total damage, 0%=no damage), read-out: Post-emergence herbicidal activity (percentage phytotoxicity) LOLPE POST); 100% in the assay with Lolium perenne (LOLPE) (pre-emergence, 480 h, PRE-emergence, rate 250 g/ha, visual score 20 DAA (100%=total damage, 0%=no damage), read-out: Pre-emergence herbicidal activity (percentage phytotoxicity) LOLPE PRE). The pest or weed control at 250 g/ha was 100% in assay [2] (post-emergence, 360 h, POST-emergence, rate 250 g/ha, visual score 15 DAA (100%=total damage, 0%=no damage), read-out: Post-emergence herbicidal activity (percentage phytotoxicity) ECHCG POST) and 100% in assay [2] (pre-emergence, 480 h, PRE-emergence, rate 250 g/ha, visual score 20 DAA (100%=total damage, 0%=no damage), read-out: Pre-emergence herbicidal activity (percentage phytotoxicity) ECHCG PRE).
